Measured values reported in PubChem BioAssay (NCI).
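Test compounds were applied to cells in 96-well plates for 48 hours at 5 doses. Abbreviation: GI50, concentration required for 50% inhibition of growth. TGI denotes the concentration required for complete inhibition of growth.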

Experiments:
Assay in all cases: NCI tumour cell line growth inhibition, 48 h
T-47D breast = tested on: T-47D breast
A498 renal = tested on: A498 renal
KM12 colon = tested on: KM12 colon
CCRF-CEM leukemia = tested on: CCRF-CEM leukemia
HOP-62 NSCLC = tested on: HOP-62 NSCLC
SW-620 colon = tested on: SW-620 colon
TK-10 renal = tested on: TK-10 renal
MCF7 breast = tested on: MCF7 breast
SK-MEL-28 melanoma = tested on: SK-MEL-28 melanoma
ACHN renal = tested on: ACHN renal
MOLT-4 leukemia = tested on: MOLT-4 leukemia
BT-549 breast = tested on: BT-549 breast
NCI-H23 lung = tested on: NCI-H23 lung
SNB-75 CNS = tested on: SNB-75 CNS
SR leukemia = tested on: SR leukemia
IGROV1 ovarian = tested on: IGROV1 ovarian
UO-31 renal = tested on: UO-31 renal
DU-145 prostate = tested on: DU-145 prostate
HCC-2998 colon = tested on: HCC-2998 colon
U251 CNS = tested on: U251 CNS
SK-MEL-2 melanoma = tested on: SK-MEL-2 melanoma
SN12C renal = tested on: SN12C renal
OVCAR-8 ovarian = tested on: OVCAR-8 ovarian
SF-268 CNS = tested on: SF-268 CNS
NCI-H460 lung = tested on: NCI-H460 lung
HOP-92 NSCLC = tested on: HOP-92 NSCLC
EKVX NSCLC = tested on: EKVX NSCLC
MDA-MB-231 breast = tested on: MDA-MB-231 breast
SF-295 CNS = tested on: SF-295 CNS
RXF 393 renal = tested on: RXF 393 renal
HL-60(TB) leukemia = tested on: HL-60(TB) leukemia
HT29 colon = tested on: HT29 colon
786-0 renal = tested on: 786-0 renal
PC-3 prostate = tested on: PC-3 prostate
UACC-257 melanoma = tested on: UACC-257 melanoma
NCI/ADR-RES ovarian = tested on: NCI/ADR-RES ovarian
K-562 leukemia = tested on: K-562 leukemia
UACC-62 melanoma = tested on: UACC-62 melanoma
MALME-3M melanoma = tested on: MALME-3M melanoma
HCT-15 colon = tested on: HCT-15 colon
HCT-116 colon = tested on: HCT-116 colon
MDA-MB-435 = tested on: MDA-MB-435
CAKI-1 renal = tested on: CAKI-1 renal
RPMI-8226 leukemia = tested on: RPMI-8226 leukemia
COLO 205 colon = tested on: COLO 205 colon
A549 NSCLC = tested on: A549 NSCLC
OVCAR-4 ovarian = tested on: OVCAR-4 ovarian
NCI-H226 lung = tested on: NCI-H226 lung
LOX IMVI melanoma = tested on: LOX IMVI melanoma
SF-539 CNS = tested on: SF-539 CNS
HS 578T breast = tested on: HS 578T breast
M14 melanoma = tested on: M14 melanoma
SNB-19 CNS = tested on: SNB-19 CNS
NCI-H522 lung = tested on: NCI-H522 lung
SK-MEL-5 melanoma = tested on: SK-MEL-5 melanoma
SK-OV-3 ovarian = tested on: SK-OV-3 ovarian
OVCAR-5 ovarian = tested on: OVCAR-5 ovarian

`COc1cc(OC)c(/C=C/S(=O)(=O)Cc2ccc(OC)c(NC(=O)CCC(=O)NO)c2)c(OC)c1` gave a GI50 (T-47D breast) of 30600 nM, a TGI (T-47D breast) greater than 100000 nM and a GI50 (A498 renal) of less than 13.4 nM. The TGI (A498 renal) was 79.4 nM, the GI50 (KM12 colon) was 30.7 nM and the TGI (KM12 colon) was greater than 100000 nM. It also gave a GI50 (CCRF-CEM leukemia) of 35.3 nM, a TGI (CCRF-CEM leukemia) greater than 100000 nM and a GI50 (HOP-62 NSCLC) of 67.5 nM. It also gave a TGI (HOP-62 NSCLC) greater than 100000 nM, a GI50 (SW-620 colon) of 37.7 nM and a TGI (SW-620 colon) greater than 100000 nM. The GI50 (TK-10 renal) was greater than 100000 nM, the TGI (TK-10 renal) was greater than 100000 nM and the GI50 (MCF7 breast) was 25 nM. For the same compound, the TGI (MCF7 breast) was greater than 100000 nM, the GI50 (SK-MEL-28 melanoma) was greater than 84500 nM and the TGI (SK-MEL-28 melanoma) was greater than 100000 nM. It also gave a GI50 (ACHN renal) of 33.2 nM, a TGI (ACHN renal) greater than 100000 nM and a GI50 (MOLT-4 leukemia) of 46.7 nM. For the same compound, the TGI (MOLT-4 leukemia) was greater than 100000 nM, the GI50 (BT-549 breast) was 24.4 nM and the TGI (BT-549 breast) was 72.4 nM. For the same compound, the GI50 (NCI-H23 lung) was 49.9 nM, the TGI (NCI-H23 lung) was greater than 100000 nM and the GI50 (SNB-75 CNS) was 18.4 nM. For the same compound, the TGI (SNB-75 CNS) was 3680 nM, the GI50 (SR leukemia) was 20.3 nM and the TGI (SR leukemia) was greater than 100000 nM. The GI50 (IGROV1 ovarian) was 38.6 nM, the TGI (IGROV1 ovarian) was greater than 100000 nM and the GI50 (UO-31 renal) was 107 nM. The TGI (UO-31 renal) was greater than 100000 nM, the GI50 (DU-145 prostate) was 45.1 nM and the TGI (DU-145 prostate) was greater than 100000 nM. For the same compound, the GI50 (HCC-2998 colon) was 34.5 nM, the TGI (HCC-2998 colon) was greater than 100000 nM and the GI50 (U251 CNS) was 38.7 nM. It also gave a TGI (U251 CNS) greater than 100000 nM, a TGI (SK-MEL-2 melanoma) greater than 37200 nM and a GI50 (SN12C renal) of 61.8 nM. The TGI (SN12C renal) was greater than 100000 nM, the GI50 (OVCAR-8 ovarian) was 41.2 nM and the TGI (OVCAR-8 ovarian) was greater than 100000 nM. The GI50 (SF-268 CNS) was 102 nM, the TGI (SF-268 CNS) was greater than 100000 nM and the GI50 (NCI-H460 lung) was 34 nM. It also gave a TGI (NCI-H460 lung) greater than 100000 nM, a GI50 (HOP-92 NSCLC) of 251 nM and a TGI (HOP-92 NSCLC) greater than 100000 nM. It also gave a GI50 (EKVX NSCLC) of 57.3 nM, a TGI (EKVX NSCLC) greater than 100000 nM and a GI50 (MDA-MB-231 breast) of 47.8 nM. The TGI (MDA-MB-231 breast) was greater than 100000 nM, the GI50 (SF-295 CNS) was 14.4 nM and the TGI (SF-295 CNS) was greater than 100000 nM. The GI50 (RXF 393 renal) was 21.4 nM, the TGI (RXF 393 renal) was greater than 100000 nM and the GI50 (HL-60(TB) leukemia) was 26.2 nM. The TGI (HL-60(TB) leukemia) was 88 nM, the GI50 (HT29 colon) was 38.7 nM and the TGI (HT29 colon) was greater than 100000 nM. It also gave a GI50 (786-0 renal) of 43.6 nM, a TGI (786-0 renal) greater than 100000 nM and a GI50 (PC-3 prostate) of 31.1 nM. It also gave a TGI (PC-3 prostate) greater than 100000 nM, a GI50 (UACC-257 melanoma) greater than 100000 nM and a TGI (UACC-257 melanoma) greater than 100000 nM. For the same compound, the GI50 (NCI/ADR-RES ovarian) was less than 15.8 nM, the TGI (NCI/ADR-RES ovarian) was greater than 100000 nM and the GI50 (K-562 leukemia) was less than 15.4 nM. The TGI (K-562 leukemia) was greater than 100000 nM, the GI50 (UACC-62 melanoma) was 19.8 nM and the TGI (UACC-62 melanoma) was greater than 100000 nM. For the same compound, the GI50 (MALME-3M melanoma) was greater than 100000 nM, the TGI (MALME-3M melanoma) was greater than 100000 nM and the GI50 (HCT-15 colon) was 22.5 nM. It also gave a TGI (HCT-15 colon) greater than 100000 nM, a GI50 (HCT-116 colon) of 27.8 nM and a TGI (HCT-116 colon) greater than 100000 nM. For the same compound, the TGI (MDA-MB-435) was 31.5 nM, the GI50 (CAKI-1 renal) was less than 15.9 nM and the TGI (CAKI-1 renal) was greater than 100000 nM. For the same compound, the GI50 (RPMI-8226 leukemia) was 45.2 nM, the TGI (RPMI-8226 leukemia) was greater than 100000 nM and the GI50 (COLO 205 colon) was 32.9 nM. For the same compound, the GI50 (A549 NSCLC) was 39.7 nM, the TGI (A549 NSCLC) was greater than 100000 nM and the TGI (OVCAR-4 ovarian) was greater than 100000 nM. The GI50 (NCI-H226 lung) was 99.5 nM, the TGI (NCI-H226 lung) was greater than 100000 nM and the GI50 (LOX IMVI melanoma) was 29.6 nM. It also gave a TGI (LOX IMVI melanoma) greater than 100000 nM, a GI50 (SF-539 CNS) of 26.1 nM and a TGI (SF-539 CNS) of 432 nM. The GI50 (HS 578T breast) was 23 nM, the TGI (HS 578T breast) was greater than 100000 nM and the GI50 (M14 melanoma) was 18.8 nM. For the same compound, the TGI (M14 melanoma) was greater than 100000 nM, the GI50 (SNB-19 CNS) was 46.3 nM and the TGI (SNB-19 CNS) was greater than 100000 nM. For the same compound, the GI50 (NCI-H522 lung) was less than 12.6 nM, the GI50 (SK-MEL-5 melanoma) was 29.9 nM and the TGI (SK-MEL-5 melanoma) was 256 nM. The GI50 (SK-OV-3 ovarian) was 1170 nM, the TGI (SK-OV-3 ovarian) was greater than 100000 nM and the GI50 (OVCAR-5 ovarian) was 55 nM. The TGI (OVCAR-5 ovarian) was greater than 100000 nM.
